The target in assay [1] is T1, human TP receptor (Homo sapiens, UniProt P21731).
T1 construct: expressed in transfected cells; host or cells: CHO-K1
T1 sequence (P21731 1-343): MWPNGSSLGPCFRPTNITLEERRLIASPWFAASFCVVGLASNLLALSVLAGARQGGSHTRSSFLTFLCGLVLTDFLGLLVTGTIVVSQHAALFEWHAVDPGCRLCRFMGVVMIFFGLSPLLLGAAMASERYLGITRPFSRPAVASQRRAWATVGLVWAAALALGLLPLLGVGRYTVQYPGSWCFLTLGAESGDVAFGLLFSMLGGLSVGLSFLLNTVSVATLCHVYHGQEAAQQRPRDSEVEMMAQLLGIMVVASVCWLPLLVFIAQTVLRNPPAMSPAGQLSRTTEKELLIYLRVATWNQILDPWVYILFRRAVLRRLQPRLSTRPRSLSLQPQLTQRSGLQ
Put plainly: human TP calcium mobilisation assay. The assay is classed as cell-based. To be noted: CHO-K1 cells, antagonism of U46619; averages of a number of experiments; read-out: functional pKi value (human TP calcium mobilisation assay) (converted). As for the experimental part: To determine if a compound has agonist or antagonist activity at the TP receptor a functional calcium mobilisation assay may be performed. Briefly, the antagonist properties of compounds are assessed by their ability to inhibit the mobilisation of intracellular calcium ([Ca^2+]i) in response to activation of TP receptors by the stable TXA2 mimetic U46619 (9,11-dideoxy-11α,9α-epoxy-methanoprostaglandin F2α; commercially available from e.g Sigma-Aldrich). Increasing concentrations of antagonist reduce the amount of calcium that a given concentration of U46619 can mobilise. The net effect is to displace the U46619 concentration-effect curve. The amount of calcium produced is assessed using a calcium-sensitive fluorescent dye such as Fluo-4, AM and a suitable instrument such as a Fluorimetric Imaging Plate Reader (FLIPR). Increasing amounts of [Ca^2+]i produced by receptor activation increase the amount of fluorescence produced by the dye and give rise to an increasing signal. The signal may be detected using the FLIPR instrument and the data generated may be analysed with suitable curve-fitting software. The agonist activity of the compounds are determined by their ability to cause an increase in intracellular mobilisation in the absence of U46619.
The human TP calcium mobilisation assay utilises Chinese hamster ovary-K1 (CHO-K1) cells into which a stable (pCIN; BioTechniques 20 (1996): 102-110) vector containing TP cDNA has previously been transfected. Cells are cultured in suitable flasks containing culture medium such as DMEM:F-12 supplemented with 10% v/v foetal calf serum, 2 mM L-glutamine, 0.25 mg/ml geneticin, 100 μM flurbiprofen and 10 μg/ml puromycin.
For assay, cells are harvested using a proprietary reagent that dislodges cells such as Versene. Cells are re-suspended in a suitable quantity of fresh culture media for introduction into a 96-well plate. Following incubation for 24 hours at 37° C. the culture media is replaced with a medium containing Fluo-4 and the detergent pluronic acid, and a further incubation takes place. Concentrations of compounds are then added to the plate in order to construct concentration-effect curves. This may be performed on the FLIPR in order to assess the agonist properties of the compounds. Concentrations of U46619 are then added to the plate in order to assess the antagonist properties of the compounds.
The data so generated may be analysed by means of a computerised curve-fitting routine. The concentration of compound that elicits a half-maximal inhibition of the calcium mobilisation induced by U46619 (pIC50) may then be estimated, and the percentage activation caused by the compounds directly can be used to determine if there is any agonism present.
A general note: Calcium assays in cells follow changes in intracellular calcium, usually with a dye or a luminescent sensor.

The target in assay [2] is T2, human EP1 receptor (Homo sapiens, UniProt P34995).
T2 sequence (P34995 1-402): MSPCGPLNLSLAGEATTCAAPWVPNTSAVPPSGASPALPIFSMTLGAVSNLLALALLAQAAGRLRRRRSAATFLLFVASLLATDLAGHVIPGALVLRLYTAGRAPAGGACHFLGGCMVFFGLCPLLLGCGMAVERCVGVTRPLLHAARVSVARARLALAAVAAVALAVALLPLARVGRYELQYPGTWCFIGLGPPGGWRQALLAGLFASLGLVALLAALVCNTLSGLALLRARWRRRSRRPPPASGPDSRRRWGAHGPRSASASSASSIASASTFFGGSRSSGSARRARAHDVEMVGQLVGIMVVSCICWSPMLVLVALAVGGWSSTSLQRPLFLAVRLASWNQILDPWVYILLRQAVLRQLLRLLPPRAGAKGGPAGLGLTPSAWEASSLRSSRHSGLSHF
Put plainly: human EP1 calcium mobilisation assay. It is filed as cell-based. On the set-up: expressed in transfected cells. To be noted: CHO-K1 cells, antagonism of PGE2; averages of a number of experiments; read-out: functional pKi value (human EP1 calcium mobilisation assay) (converted). An outline of the steps: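 CHO-K1 cells stably transfected with human EP1 or EP3, loaded with Fluo-4 after 24 h culture, treated with compound, then challenged with PGE2. Calcium-driven fluorescence read on FLIPR; pIC50 is half-maximal inhibition of PGE2-induced calcium mobilisation, from curve fitting.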

Structures can show the parent of a compound that is named as a salt. A value given as a limit tells only on which side of the number the result lay.

`CC(C)c1cc2cc(Cl)cc(Cc3ccc(C(=O)O)o3)c2o1` [Example 1, 5-{[5-Chloro-2-(1-methylethyl)-1-benzofuran-7-yl]methyl}-2-furancarboxylic Acid]: the Ki was under 0.0316 µM in assay [1] and at most 0.316 µM in assay [2].
Regarding `Cc1cc(C(=O)O)nn1Cc1cc(Cl)cc2cc(C(C)C)oc12` [Example 3, 1-{[5-Chloro-2-(1-methylethyl)-1-benzofuran-7-yl]methyl}-5-methyl-1H-pyrazole-3-carboxylic Acid], the Ki in assay [1] is under 3.16 µM; in assay [2] it was at most 0.316 µM.
Regarding `CCNCc1ccc(NC(=O)c2cc(C)n(Cc3cc(Cl)cc4cc(C(C)C)oc34)n2)cc1` [Example 15, 1-{[5-Chloro-2-(1-methylethyl)-1-benzofuran-7-yl]methyl}-N-{4-[(ethylamino)methyl]phenyl}-5-methyl-1H-pyrazole-3-carboxamide hydrochloride], the Ki was over 3.16 µM in assay [1] and at most 0.316 µM in assay [2].
As for `Cc1cc(C(=O)Nc2ccc(CN3CCC(O)CC3)cc2)nn1Cc1cc(Cl)cc2cc(C(C)C)oc12` [Example 16, 1-{[5-Chloro-2-(1-methylethyl)-1-benzofuran-7-yl]methyl}-N-{4-[(4-hydroxy-1-piperidinyl)methyl]phenyl}-5-methyl-1H-pyrazole-3-carboxamide hydrochloride], the Ki in assay [1] is over 3.16 µM; in assay [2], at most 0.316 µM.
With `Cc1cc(C(=O)Nc2ccc(CN3CC[C@@H](O)C3)cc2)nn1Cc1cc(Cl)cc2cc(C(C)C)oc12` [Example 17, 1-{[5-Chloro-2-(1-methylethyl)-1-benzofuran-7-yl]methyl}-N-(4-{[(3R)-3-hydroxy-1-pyrrolidinyl]methyl}phenyl)-5-methyl-1H-pyrazole-3-carboxamide hydrochloride], the Ki was over 3.16 µM in assay [1] and at most 0.316 µM in assay [2].
The like results for `Cc1cc(C(=O)NN2CCOCC2)nn1Cc1cc(Cl)cc2cc(C3CCCCC3)oc12` [Example 28, 1-[(5-Chloro-2-cyclohexyl-1-benzofuran-7-yl)methyl]-5-methyl-N-4-morpholinyl-1H-pyrazole-3-carboxamide] were, in that order, over 3.16 µM and at most 0.316 µM.

The record behind these values is patent publication US20090099169A1, “Benzofuran Compounds As EP1 Receptor Antagonists” (GLAXO GROUP LIMITED, priority 2006, published 2009).
